Target: T1, human TAS1R2-WT (subunit alone) (Homo sapiens, UniProt Q8TE23)
T1 construct: expressed in transfected cells; host or cells: HEK293T-Gα16gust44
T1 sequence (Q8TE23 20-839): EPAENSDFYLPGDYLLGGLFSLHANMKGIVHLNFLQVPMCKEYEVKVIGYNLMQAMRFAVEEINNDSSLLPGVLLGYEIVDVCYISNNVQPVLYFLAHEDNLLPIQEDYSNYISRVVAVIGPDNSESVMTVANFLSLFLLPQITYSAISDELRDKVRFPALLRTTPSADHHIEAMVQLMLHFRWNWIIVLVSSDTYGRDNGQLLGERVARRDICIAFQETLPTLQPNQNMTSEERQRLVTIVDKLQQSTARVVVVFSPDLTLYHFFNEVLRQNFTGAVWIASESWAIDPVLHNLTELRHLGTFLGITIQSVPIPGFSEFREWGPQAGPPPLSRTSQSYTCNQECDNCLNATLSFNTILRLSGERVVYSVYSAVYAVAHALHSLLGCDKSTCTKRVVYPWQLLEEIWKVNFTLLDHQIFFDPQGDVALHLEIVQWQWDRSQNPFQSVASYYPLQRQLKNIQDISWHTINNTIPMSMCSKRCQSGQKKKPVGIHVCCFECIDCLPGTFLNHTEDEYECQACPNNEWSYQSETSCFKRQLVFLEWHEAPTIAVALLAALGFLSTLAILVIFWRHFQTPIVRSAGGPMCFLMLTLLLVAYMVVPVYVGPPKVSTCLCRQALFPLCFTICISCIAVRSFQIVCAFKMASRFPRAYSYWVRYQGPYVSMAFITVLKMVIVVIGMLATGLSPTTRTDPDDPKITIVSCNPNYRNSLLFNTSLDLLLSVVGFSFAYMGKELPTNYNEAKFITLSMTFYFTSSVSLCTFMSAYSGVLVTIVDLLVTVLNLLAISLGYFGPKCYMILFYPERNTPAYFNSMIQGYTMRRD
Test: Calcium mobilisation assay, TAS1R2-WT subunit alone
Type: cell-based
Source text: The coding sequences for TAS1R2 and TAS1R3 were commercially synthesised, and the human codon was optimised for expression in human cells. The coding sequences of human TAS1R2 and TAS1R3 were subcloned and inserted into the mammalian expression vectors pcDNA6/myc-HisA and pcDNA4/myc-HisA (Invitrogen; Thermo Fisher Scientific; Illkirch, France) between the EcoRI and NotI restriction sites, generating the plasmids pcDNA6-TAS1R2 and pcDNA4-TAS1R3, respectively. To increase protein expression in mammalian cells, an upstream start codon was used, which was a sequence called MAX, corresponding to the QBI SP163 element also described in pcDNA4-HisMax (Invitrogen; Thermo Fisher Scientific; Illkirch, France). To measure the expression level of the receptor by immunohistochemistry, we used the FLAG sequence ([…]) in the C-terminal position, which encodes the FLAG tag epitope. […]
The HEK293T cells were kindly provided by Jay P. Slack (Givaudan Flavors Corporation; Cincinnati, OH, USA). […] The fluorescence intensity was measured for 90 s (excitation 488 nm, emission 510 nm) in an automated fluorometric FlexStation®3 Multi-Mode microplate reader (Molecular Devices; San Jose, CA, USA). […] The Ca^2+ changes were expressed as fractional changes in fluorescent light intensity: ΔF/F = (F − F0)/F0, where F was the fluorescent light intensity at each point, and F0 was the value of emitted fluorescent light prior to stimulus application. To calculate dose–response relationships, the changes in fluorescence upon stimulus application were averaged, mock-subtracted and baseline-corrected. […] The half-maximal effective concentrations (EC50 values) and maximal signal amplitudes were calculated using SigmaPlot software (version 15.0) (Systat Software; San Jose, CA, USA).
For in vitro calcium mobilisation assay performed on hTAS1R2-SNPs, hTAS1R3-SNPs and mTAS1R3-I60T, 6 to 7 concentrations were tested for each sweet compound, plus buffer alone. All concentration–receptor combinations were measured in duplicate, and each experiment was repeated at least 4 times (8 wells/concentration). […]

C=C(C)[C@@H]1CC=C(/C=N/O)CC1 [Perillartine, perillartine]
EC50: 90 ± 17 µM | R1 = Variant EC50/WT EC50: 1.0 | Max ΔF/F0 (maximal signal amplitude): 1.06 ± 0.06

— publication PMC11945486, “TAS1R2/TAS1R3 Single-Nucleotide Polymorphisms Affect Sweet Taste Receptor Activation by Sweeteners: The SWEET Project” (Nutrients, 2025)
